According to patent US8158587B2, “Compound having histone deacetylase-inhibiting activity, and pharmaceutical composition comprising the compound as an active ingredient” (Kyushu Institute of Technology, priority 2006, dated 2012):
Like-named read-outs stand apart in the source and are kept apart here. Non-standard residues stand in square brackets, D forms with d. Residues, ends and D or L forms follow the SMILES beside them. Ala(5-hexenyl) = C=CCCCCC[C@H](N)C(=O)O; Aib = CC(C)(N)C(=O)O

How the values were obtained:
human HDAC4 = target: T1, human HDAC4 (Homo sapiens, UniProt P56524); assay: HDAC-inhibiting activity, coumarin-labeled acetylated histone peptide assay; format: biochemical
T1 construct: made in house; host or cells: 293T cells (transient transfection, anti-FLAG immunoprecipitation, FLAG peptide elution)
Experimental: In carrying out HDAC-inhibiting activity measurements, HDAC solutions were prepared in the following manner. […] The human HDAC1 expression vector used was pcDNA3-HD1 (Yang, W. M., Yao, Y. L., Sun, […]. & Seto, E. (1997) J. Biol. Chem. 272, 28001-28007), the human HDAC4 expression vector used was pcDNA3-HD4 ([…]., Nagase, […]. Biol. Chem. 274, 11713-11720), and the murine HDAC6 expression vector used was pcDNA3-mHDA2/HDAC6 ([…]. Biol. Chem. 274, 2440-2445). After 24 hours of incubation, cells were recovered, washed with PBS, suspended in lysis buffer (50 mM Tris-HCl (pH 7.5), 120 mM NaCl, 5 mM EDTA, 0.5% Nonidet P-40), and sonicated. The supernatant was collected by centrifugation and then deprived of nonspecific proteins using Protein A/G plus agarose beads (Santa Cruz Biotechnologies, Inc.). Thereafter, anti-FLAG M2 antibody (Sigma-Aldrich Inc.) was added, and the reaction was allowed to proceed at 4° C. for 2 hours. To this were added agarose beads, the reaction was allowed to proceed at 4° C. for 3 hours, and the agarose beads were washed three times with lysis buffer and then once with HD buffer (20 mM Tris-HCl (pH 8.0), 150 mM NaCl, 10% glycerol). […] HDAC-inhibiting activity evaluation in each in vitro system was made as follows. Each test compound was dissolved in DMSO, a stock solution with a concentration of 10 mM was thus prepared and this was used as an inhibitor stock solution. The assay was carried out by incubating the HDAC solution and a coumarin-labeled acetylated histone peptide solution in the presence of the test compound at 37° C. for 30 minutes (reaction volume 20 μl). To the reaction mixture was added 30 μl of trypsin, and the aminomethylcoumarin released by the enzymatic reaction was assayed using a fluorescent plate reader. In a negative control assay, no inhibitor was added to the reaction system and the same procedure was carried out.

[1] = tested on: human wild type p21 promoter; assay: p21 promoter assay (luciferase) in MFLL-9 cells; format: cell-based; conditions: 20 hours, concentration giving 1000% luminescence relative to negative control (100%)
Experimental: As an HDAC-inhibiting activity in an […] system, the following measurement was carried out using the p21 promoter inducing activity as an index. MFLL-9 cells used in the experiment are cells stably retaining a fusion gene (Dr. B. Vogelstaein) from the human wild type p21 promoter and luciferase gene. They were cultured using phenol red-free DMEM supplemented with 10% FBS in a steam-saturated incubator at 37° C. in the presence of 5% carbon dioxide. These MFLL-9 cells were sowed onto a 96-well microplate at a cell density of 2×10^4 cells/well and, after 24 hours of cultivation in 99 μl, per well, of the medium mentioned above, each test compound solution was added, followed by 20 hours of incubation. […] In a negative control, the same procedure was carried out without adding any inhibitor to the reaction system.
Using Luciferase Assay Reagent (Promega), the intensity of the luminescence due to the product of the enzymatic reaction involving luciferase expressed within cells was measured.

human HDAC1 = target: T2, human HDAC1 (Homo sapiens, UniProt Q13547); assay: HDAC-inhibiting activity, coumarin-labeled acetylated histone peptide assay; format: biochemical; conditions: human HDAC1 from transfected 293T cells; 37° C., 30 minutes
T2 construct: made in house; host or cells: 293T cells (transient transfection, anti-FLAG immunoprecipitation, FLAG peptide elution)
Experimental: (§1) In carrying out HDAC-inhibiting activity measurements, HDAC solutions were prepared in the following manner. In each 100-mm dish, there were sowed 1×10^7 293T cells and, after 24 hours, they were transfected with a vector (5 μg) expressing human HDAC1 or HDAC4 or murine HDAC6 using the LipofectAmine 2000 reagent (Invitrogen). The human HDAC1 expression vector used was pcDNA3-HD1 (Yang, W. M., Yao, Y. L., Sun, J. M., Davie, J. R. & Seto, E. (1997) J. Biol. Chem. 272, 28001-28007), the human HDAC4 expression vector used was pcDNA3-HD4 (Fischle, W., Emiliani, S., Hendzel, M. J., Nagase, T., Nomura, N., Voelter, W. & Verdin, E. (1999) J. Biol. Chem. 274, 11713-11720), and the murine HDAC6 expression vector used was pcDNA3-mHDA2/HDAC6 (Verdel, A. & Khochbin, S. (1999) J. Biol. Chem. 274, 2440-2445).
(§2) After 24 hours of incubation, cells were recovered, washed with PBS, suspended in lysis buffer (50 mM Tris-HCl (pH 7.5), 120 mM NaCl, 5 mM EDTA, 0.5% Nonidet P-40), and sonicated. The supernatant was collected by centrifugation and then deprived of nonspecific proteins using Protein A/G plus agarose beads (Santa Cruz Biotechnologies, Inc.). Thereafter, anti-FLAG M2 antibody (Sigma-Aldrich Inc.) was added, and the reaction was allowed to proceed at 4° C. for 2 hours.
(§3) To this were added agarose beads, the reaction was allowed to proceed at 4° C. for 3 hours, and the agarose beads were washed three times with lysis buffer and then once with HD buffer (20 mM Tris-HCl (pH 8.0), 150 mM NaCl, 10% glycerol). The protein bound to the agarose beads was recovered by 1 hour of incubation with FLAG peptide (40 μg) (Sigma-Aldrich Inc.) in HD buffer (200 μl) at 4° C., and the liquid recovered was used, as a reactant solution, in the HDAC-inhibiting activity measurement described below.
(§4) HDAC-inhibiting activity evaluation in each in vitro system was made as follows. Each test compound was dissolved in DMSO, a stock solution with a concentration of 10 mM was thus prepared and this was used as an inhibitor stock solution. The assay was carried out by incubating the HDAC solution and a coumarin-labeled acetylated histone peptide solution in the presence of the test compound at 37° C. for 30 minutes (reaction volume 20 μl). To the reaction mixture was added 30 μl of trypsin, and the aminomethylcoumarin released by the enzymatic reaction was assayed using a fluorescent plate reader. In a negative control assay, no inhibitor was added to the reaction system and the same procedure was carried out.

murine HDAC6 = target: T3, murine HDAC6 (Mus musculus, UniProt Q9Z2V5); assay: as above; format: biochemical; conditions: murine HDAC6 from transfected 293T cells; 37° C., 30 minutes
T3 construct: made in house; host or cells: 293T cells (transient transfection, anti-FLAG immunoprecipitation, FLAG peptide elution)
T3 sequence (Q9Z2V5 1-1149): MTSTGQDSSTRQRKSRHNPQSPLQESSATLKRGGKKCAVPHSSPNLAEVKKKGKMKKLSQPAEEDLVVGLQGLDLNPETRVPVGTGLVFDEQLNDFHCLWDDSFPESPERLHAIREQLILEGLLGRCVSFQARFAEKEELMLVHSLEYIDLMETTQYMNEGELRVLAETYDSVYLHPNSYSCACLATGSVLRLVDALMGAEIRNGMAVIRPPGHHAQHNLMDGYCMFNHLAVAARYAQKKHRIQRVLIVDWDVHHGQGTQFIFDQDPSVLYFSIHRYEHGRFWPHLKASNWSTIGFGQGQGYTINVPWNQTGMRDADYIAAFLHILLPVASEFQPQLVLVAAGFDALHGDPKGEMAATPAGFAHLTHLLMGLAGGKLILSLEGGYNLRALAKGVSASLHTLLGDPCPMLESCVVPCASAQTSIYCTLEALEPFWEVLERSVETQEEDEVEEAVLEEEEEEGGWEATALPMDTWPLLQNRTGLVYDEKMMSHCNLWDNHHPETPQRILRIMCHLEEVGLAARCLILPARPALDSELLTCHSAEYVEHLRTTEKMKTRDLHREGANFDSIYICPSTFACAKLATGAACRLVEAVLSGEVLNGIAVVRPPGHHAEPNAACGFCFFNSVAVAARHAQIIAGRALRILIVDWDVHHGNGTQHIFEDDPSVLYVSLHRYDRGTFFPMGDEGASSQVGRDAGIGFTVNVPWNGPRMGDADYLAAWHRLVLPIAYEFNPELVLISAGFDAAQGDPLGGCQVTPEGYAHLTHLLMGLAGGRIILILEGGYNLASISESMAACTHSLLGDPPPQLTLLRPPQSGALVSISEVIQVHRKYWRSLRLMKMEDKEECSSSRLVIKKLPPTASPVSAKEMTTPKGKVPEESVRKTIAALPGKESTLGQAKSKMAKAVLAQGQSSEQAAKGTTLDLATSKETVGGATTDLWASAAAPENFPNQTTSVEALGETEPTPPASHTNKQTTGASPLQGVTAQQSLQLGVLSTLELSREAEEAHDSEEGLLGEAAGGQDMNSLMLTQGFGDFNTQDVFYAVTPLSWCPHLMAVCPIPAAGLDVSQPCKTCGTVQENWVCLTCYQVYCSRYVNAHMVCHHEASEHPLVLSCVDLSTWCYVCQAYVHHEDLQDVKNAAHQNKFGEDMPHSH
Experimental: as §1, §2, §3, §4

[2] = human HDAC4 from transfected 293T cells, 37° C., 30 minutes, read-out: HDAC-inhibiting activity IC50 HDAC4

T1 sequence (P56524 whole entry): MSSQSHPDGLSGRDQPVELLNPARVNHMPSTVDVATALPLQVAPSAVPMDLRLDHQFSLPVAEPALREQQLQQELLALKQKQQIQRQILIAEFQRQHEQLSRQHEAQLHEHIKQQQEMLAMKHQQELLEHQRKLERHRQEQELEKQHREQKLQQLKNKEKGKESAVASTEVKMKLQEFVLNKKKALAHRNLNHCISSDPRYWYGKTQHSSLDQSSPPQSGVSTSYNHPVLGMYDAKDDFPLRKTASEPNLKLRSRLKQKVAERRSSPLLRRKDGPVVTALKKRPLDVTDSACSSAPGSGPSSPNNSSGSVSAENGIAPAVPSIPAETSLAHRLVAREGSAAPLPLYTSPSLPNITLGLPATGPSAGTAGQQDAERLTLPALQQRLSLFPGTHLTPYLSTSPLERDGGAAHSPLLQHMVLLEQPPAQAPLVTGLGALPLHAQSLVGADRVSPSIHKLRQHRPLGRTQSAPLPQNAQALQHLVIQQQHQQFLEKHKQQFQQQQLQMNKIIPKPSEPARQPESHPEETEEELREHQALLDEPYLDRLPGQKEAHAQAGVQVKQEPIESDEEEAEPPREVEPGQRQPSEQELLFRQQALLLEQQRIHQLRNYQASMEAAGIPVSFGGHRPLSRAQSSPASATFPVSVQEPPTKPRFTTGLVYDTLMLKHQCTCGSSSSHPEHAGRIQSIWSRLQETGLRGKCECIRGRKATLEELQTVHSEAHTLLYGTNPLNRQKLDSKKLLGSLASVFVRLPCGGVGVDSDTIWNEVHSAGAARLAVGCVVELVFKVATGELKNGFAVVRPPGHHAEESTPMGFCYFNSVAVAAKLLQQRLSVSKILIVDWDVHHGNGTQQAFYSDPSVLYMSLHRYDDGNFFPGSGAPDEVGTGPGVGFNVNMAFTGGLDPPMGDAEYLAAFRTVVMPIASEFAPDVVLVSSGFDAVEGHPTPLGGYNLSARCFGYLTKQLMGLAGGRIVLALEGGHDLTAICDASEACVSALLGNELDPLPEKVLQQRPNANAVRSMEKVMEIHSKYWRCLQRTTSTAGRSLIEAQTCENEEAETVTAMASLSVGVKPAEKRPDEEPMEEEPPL
T1 sequence (O15379 whole entry, further chain): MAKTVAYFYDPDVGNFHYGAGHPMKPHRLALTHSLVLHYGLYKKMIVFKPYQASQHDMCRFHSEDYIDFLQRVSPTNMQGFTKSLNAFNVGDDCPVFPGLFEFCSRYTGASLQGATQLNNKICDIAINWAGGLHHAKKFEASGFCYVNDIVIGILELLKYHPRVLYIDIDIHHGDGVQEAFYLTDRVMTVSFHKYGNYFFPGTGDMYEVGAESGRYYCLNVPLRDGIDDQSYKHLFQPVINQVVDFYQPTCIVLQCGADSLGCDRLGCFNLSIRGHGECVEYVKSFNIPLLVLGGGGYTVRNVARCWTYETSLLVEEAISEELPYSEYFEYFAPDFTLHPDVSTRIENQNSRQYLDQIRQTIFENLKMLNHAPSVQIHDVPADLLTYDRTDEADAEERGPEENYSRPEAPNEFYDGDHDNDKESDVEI
T2 sequence (Q13547 whole entry): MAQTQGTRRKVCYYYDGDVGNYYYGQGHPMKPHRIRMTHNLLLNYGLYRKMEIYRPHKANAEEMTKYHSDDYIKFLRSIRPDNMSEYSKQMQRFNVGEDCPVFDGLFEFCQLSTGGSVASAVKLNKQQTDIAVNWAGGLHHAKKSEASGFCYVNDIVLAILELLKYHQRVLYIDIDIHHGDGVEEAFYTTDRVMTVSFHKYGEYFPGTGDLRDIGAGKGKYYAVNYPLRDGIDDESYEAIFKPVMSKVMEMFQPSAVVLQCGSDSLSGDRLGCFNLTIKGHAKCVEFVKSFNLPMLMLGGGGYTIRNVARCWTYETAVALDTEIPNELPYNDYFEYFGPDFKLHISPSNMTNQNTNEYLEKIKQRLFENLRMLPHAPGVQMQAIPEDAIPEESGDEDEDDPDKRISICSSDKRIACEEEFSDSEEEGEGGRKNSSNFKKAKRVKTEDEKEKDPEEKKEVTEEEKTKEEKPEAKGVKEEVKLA

SMILES | IC50 (human HDAC4; [2]) [nM] | IC50 (human HDAC1) [nM] | IC50 (murine HDAC6) [nM] | IC50 (human HDAC4) [nM] | p21 promoter activity EC1000 [1] [µM]
CCOCC(=O)CCCCC[C@@H]1NC(=O)[C@H]2CCCN2C(=O)[C@H](Cc2ccccc2)NC(=O)C(C)(C)NC1=O [Ky-10, cyclo(-L-Ae9(Emk)-Aib-L-Phe-D-Pro-)] | 31 | 21 | 8400 | – | 0.095
CC1(C)NC(=O)[C@H](CCCCCC(=O)CBr)NC(=O)[C@H]2CCCN2C(=O)[C@H](Cc2ccccc2)NC1=O [Ky-12, cyclo(-L-Ae9(Bmk)-Aib-L-Phe-D-Pro-)] | 60 | 62 | 620 | – | 0.34
CSCC(=O)CCCCC[C@@H]1NC(=O)[C@H]2CCCN2C(=O)[C@H](Cc2ccccc2)NC(=O)C(C)(C)NC1=O [Ky-13, cyclo(-L-Ae9(Mtmk)-Aib-L-Phe-D-Pro-)] | 74 | 110 | 40500 | – | 0.13
CSCCCCC[C@@H]1NC(=O)[C@H]2CCCN2C(=O)[C@H](Cc2ccccc2)NC(=O)C(C)(C)NC1=O [Ky-15, cyclo(-L-Am7(methyl)-Aib-L-Phe-D-Pro-)] | > 100000 | > 100000 | > 100000 | – | –
C=CCCCCC[C@@H]1NC(=O)[C@H]2CCCN2C(=O)[C@H](Cc2ccccc2)NC(=O)C(C)(C)NC1=O [Ky-17, cyclo(-L-Ae9-Aib-L-Phe-D-Pro-)] (cyclo([Aib]F[dP][Ala(5-hexenyl)])) | – | > 100000 | > 100000 | > 100000 | >250
CC1(C)NC(=O)C(CCCCC[S+]([O-])Cc2ccccn2)NC(=O)[C@H]2CCCN2C(=O)[C@H](Cc2ccccc2)NC1=O (stereo partly drawn) [Ky-25, cyclo(-L-Am7(2-pyridylmethyl,sulfoxide)-Aib-L-Phe-D-Pro-)] | – | – | – | – | 1.4
CC1(C)NC(=O)[C@H](CCCSCC(=O)C(F)(F)F)NC(=O)[C@H]2CCCN2C(=O)[C@H](Cc2ccccc2)NC1=O [Ky-27, cyclo(-L-Am5(1,1,1-trifluoroacetonyl)-Aib-L-Phe-D-Pro-)] | > 100000 | > 100000 | > 100000 | – | >250
CC1(C)NC(=O)[C@H](CCCCSCC(=O)C(F)(F)F)NC(=O)[C@H]2CCCN2C(=O)[C@H](Cc2ccccc2)NC1=O [Ky-28, cyclo(-L-Am6(1,1,1-trifluoroacetonyl)-Aib-L-Phe-D-Pro-)] | 18400 | 83000 | > 100000 | – | 6.5
CC1(C)NC(=O)[C@H](CCCCCSCC(=O)C(F)(F)F)NC(=O)[C@H]2CCCN2C(=O)[C@H](Cc2ccccc2)NC1=O [Ky-29, cyclo(-L-Am7(1,1,1-trifluoroacetonyl)-Aib-L-Phe-D-Pro-)] | 360 | – | – | – | 0.028
CC(=O)C[S+]([O-])CCCCCC1NC(=O)[C@H]2CCCN2C(=O)[C@H](Cc2ccccc2)NC(=O)C(C)(C)NC1=O (stereo partly drawn) [Ky-86, cyclo(-L-Am7(acetonyl,sulfoxide)-Aib-L-Phe-D-Pro-)] | – | – | – | – | 16.8

The next lines start with results.

IC50 (human HDAC4; [2]) [nM] | IC50 (human HDAC1) [nM] | IC50 (murine HDAC6) [nM] | IC50 (human HDAC4) [nM] | SMILES | p21 promoter activity EC1000 [1] [µM]
17900 | 20000 | > 100000 | – | CN(C)CC(=O)CCCCC[C@@H]1NC(=O)[C@H]2CCCN2C(=O)[C@H](Cc2ccccc2)NC(=O)C(C)(C)NC1=O [Ky-14, cyclo(-L-Ae9(Dmamk)-Aib-L-Phe-D-Pro-)] | 2.4
11 | 23 | 58 | – | CC1(C)NC(=O)[C@H](CCCCCSCc2ccccn2)NC(=O)[C@H]2CCCN2C(=O)[C@H](Cc2ccccc2)NC1=O [Ky-16, cyclo(-L-Am7(2-pyridylmethylthio ether)-Aib-L-Phe-D-Pro-)] | 0.20
190 | 110 | 4300 | – | CC(=O)SCC(=O)CCCCC[C@@H]1NC(=O)[C@H]2CCCN2C(=O)[C@H](Cc2ccccc2)NC(=O)C(C)(C)NC1=O [Ky-18, cyclo(-L-Ae9(Actmk)-Aib-L-Phe-D-Pro-)] | 0.013
460 | 370 | > 100000 | – | CC1(C)NC(=O)[C@H](CCCCCC(=O)COCC(F)(F)F)NC(=O)[C@H]2CCCN2C(=O)[C@H](Cc2ccccc2)NC1=O [Ky-60, cyclo(-L-Ae9(Tfemk)-Aib-L-Phe-D-Pro-)] | 0.85
